Results as given in publication PMC9555560, “Fast relaxing red and near-IR switchable azobenzenes with chalcogen and halogen substituents: periodic trends, tuneable thermal half-lives and chalcogen bonding” (Chemical Science, 2022).

Legend:
Type in all cases: physicochemical
[1] = Half-life of the Z → E thermal isomerisation (UV-vis absorbance followed over time after irradiation); settings: for τ 1/2: 298 K
Description: (§1) The E → Z photo-isomerisation and half-life for the Z → E thermal isomerisation was evaluated for all derivatives (Fig. 7 and Table 1, see ESI ^† for original data). To our surprise, the half-lives for (Z)-X2,m-Y2 derivatives were in the order of hours to days for X = F and Cl: the effect of the meta group was not as drastic as anticipated. We typically observed a ∼4 fold decrease in half-life by substituting H with OMe, and a further 3-fold drop from OMe to NMe2 for X = F, Cl and SEt. The nature of the ortho-substituent appeared to be the main influence on τ1/2 (F > Cl ≫ SEt). However, these predictable trends observed for the meta-substitution allow for precise tuning of thermal half-lives. The photo-stationary states (PSSs) of these derivatives ranged from 48–77% Z isomer (Table 1).
All UV-vis spectra were determined in DMSO solution. […]
Lambert plot) to determine the molar extinction coefficient ε. For each slow relaxing compound, the E isomer sample at 40 µM was irradiated with the appropriate wavelength of light to generate the photo-stationary state, and another spectrum was run. This spectrum was normalised to units of ε and overlaid with the dark (100% E isomer) spectrum. […]
Photo-irradiation of liquid samples was carried out using Thorlabs high-power mounted LEDs (models […]
M530L4 (green, 530 nm); in-house custom built set-ups using optical components supplied by Thorlabs, as described in reference 2
Equation y = y0 + A1*exp(-(x-x0)/t1
Figure S327. Lifetime plot of (Z)-Br4-NHBoc based on following UV-Vis absorbance over time after irradiation with 625 nm light (rt, DMSO). Data consistent with NMR half-life data.
Figure S328. Reversible of switching of I4-NHBoc over time after irradiation with 6 60 nm light (rt, DMSO). Dots : raw data, Line: 1st order Exponential Fit […]

[2] = UV-vis spectra of the E isomers (n → π* absorption maximum); settings: E isomer, DMSO
From the text: The UV-vis spectra of the (E)-X4 derivatives and (E)-X2,m-Y2 are shown in Fig. 3 (analogous spectra for the Z isomers, and deconvoluted spectra are available in the ESI ^†). […] The n → π* transition maximum, λmax, typically followed the order meta-H > –NMe2 > –OMe and ortho-S > Cl > F. It is clear from these experiments that the four ortho X substituents in the X4 derivatives are essential for achieving the deeply red-shifted tails which allows for red/near-IR triggered photo-isomerisation.
(§2) All UV-vis spectra were determined in DMSO solution. Extinction coefficients were determined by recording a UV-vis spectra for the E isomer at 10, 20, 30, 40 µM in DMSO respectively. The absorbance at the maximum of the π - π* transition of the E‐isomers was plotted against concentration (Beer-Lambert plot) to determine the molar extinction coefficient ε. For each slow relaxing compound, the E isomer sample at 40 µM was irradiated with the appropriate wavelength of light to generate the photo-stationary state, and another spectrum was run. This spectrum was normalised to units of ε and overlaid with the dark (100% E isomer) spectrum.

[3] = E → Z photo-isomerisation with LEDs / photo-stationary state (PSS) determination; settings: under irradiation
Description: as §1
Remarkably, it was possible to photo-switch the tetra-iodo derivative I4-ester using near-IR light (730 nm) (Fig. 8C). […] Photo-isomerisation was not detected for the ortho-telluro derivatives. This is consistent with findings by Haberhauer and co-workers, who propose that the strong chalcogen bonds in the E isomer of a PhTe-substituted azobenzene lead to dramatic energy differences between the E and Z isomers, which suppresses photoswitching.[43] The photo-stationary states of the halogen X4 derivatives range from 50–84% (Table 1) and could also be determined for the slower relaxing chalcogen derivatives (PSS 46–95%, see Fig. S308–S323 ^† for original data).
as §2, with “spectrum. […]” for “spectrum.”

[4] = GSH stability study (decay of absorbance in phosphate buffer with 10 mM glutathione); settings: for t1 of 1st order exponential decay fit (decomposition with GSH): 100 mM phosphate buffer containing 10 mM GSH degassed with N2, 298 K; for τ 1/2 (10 mM GSH): 100 mM phosphate buffer pH 7 containing 10 mM GSH, degassed with N2, 298 K, para substituent CH2NH2·TFA
Description: Finally, the stability of the X4 derivatives were assessed by exposing them to the highest expected intracellular concentration of glutathione (GSH, 10 mM).[28] This was achieved by treating the Boc-protected amino-methyl derivatives X4-NHBoc (X = F, Cl, Br, I, OMe, SMe and SeMe) with TFA to remove the protecting groups. The resulting ammonium-appended AB derivative was dissolved in N2-degassed 100 mM phosphate buffer at pH 7 containing 10 mM GSH, and the changes in absorbance were monitored over an extended period. […] Strong σ-donating substituents are also proposed to aid diazo lone pair protonation, and subsequent GSH attack.[25]
A 10 mM reduced glutathione (GSH) solution was prepared in degassed 100 mM sodium phosphate buffer (at least 15 minutes of N 2 bubbled through the buffer solution prior to addition to GSH). The absorption of the solution was measured periodically at 25 °C, then fitted to a 1 st Order exponential […]
Equation y = y0 + A1*exp(-(x-x0)
Figure S366. Decomposition of F4-CH2NH2•TFA Conditions: 100 mM phosphate buffer containing 10 mM GSH degassed with N2. T = 298 K. […]

[5] = Z → E thermal isomerisation, DMSO

Compound | τ 1/2 [1, 5] | λ max of n → π* transition [2] [nm] | other results
CSc1cccc(SC)c1/N=N/c1c(SC)cccc1SC [(SMe)4-H] | 5 m | 514.2 | –
CN(C)c1cc(N=Nc2cc(N(C)C)c(CNC(=O)OC(C)(C)C)cc2Cl)c(Cl)cc1CNC(=O)OC(C)(C)C [Cl2,m-(NMe2)2] | 4 h | 432.1 | –
CCSc1cc(CNC(=O)OC(C)(C)C)c(N(C)C)cc1/N=N/c1cc(N(C)C)c(CNC(=O)OC(C)(C)C)cc1SCC [(SEt)2,m-(NMe2)2] | 0.0389 h | 543.0 | –
CC(C)(C)OC(=O)NCc1ccc(N=Nc2ccc(CNC(=O)OC(C)(C)C)cc2F)c(F)c1 [F2,m-H2] | 75 h | 452.5 | –
CCOC(=O)c1cc(I)c(N=Nc2c(I)cc(C(=O)OCC)cc2I)c(I)c1 [I4-ester] | 0.0128 h | 519.6 | –
CCSc1cc(CNC(=O)OC(C)(C)C)cc(SCC)c1/N=N/c1c(SCC)cc(CNC(=O)OC(C)(C)C)cc1SCC [(SEt)4-NHBoc] | 3 m | 514.5 | –
CC(C)(C)OC(=O)NCc1cc(I)c(N=Nc2c(I)cc(CNC(=O)OC(C)(C)C)cc2I)c(I)c1 [I4-NHBoc] | 5 m | 514.3 | τ1/2 (Z) ([1]; Z → E thermal isomerisation, printed in Fig. 1 / Fig. 8): 5 min
OCc1cc(I)c(/N=N/c2c(I)cc(CO)cc2I)c(I)c1 [I4-OH] | – | 500.3 | –
CN(C)c1cc(N=Nc2cc(N(C)C)c(CNC(=O)OC(C)(C)C)cc2F)c(F)cc1CNC(=O)OC(C)(C)C [F2,m-(NMe2)2] | 16 h | 405.5 | –
CCSc1cc(CNC(=O)OC(C)(C)C)c(OC)c(SCC)c1/N=N/c1c(SCC)cc(CNC(=O)OC(C)(C)C)c(OC)c1SCC [(SEt)4,m-OMe2-NHBoc] | – | 512.9 | Stability to light [3]: unstable to light
CCOP(=O)(OCC)c1ccccc1/N=N/c1ccccc1P(=O)(OCC)OCC [(PO(OEt)2)2,m-H] | – | 458.2 | –
CC(C)(C)OC(=O)NCc1ccc(N=Nc2ccc(CNC(=O)OC(C)(C)C)cc2Cl)c(Cl)c1 [Cl2,m-H2] | 34 h | 471.0 | –
CC(C)(C)OC(=O)NCc1cc(F)c(N=Nc2c(F)cc(CNC(=O)OC(C)(C)C)cc2F)c(F)c1 [F4-NHBoc] | 1.25y | 454 | –
CC(C)Sc1cc(CNC(=O)OC(C)(C)C)cc(SC(C)C)c1/N=N/c1c(SC(C)C)cc(CNC(=O)OC(C)(C)C)cc1SC(C)C [(S^iPr)4-NHBoc] | 3 m | 500.4 | –
COc1cc(N=Nc2cc(OC)c(CNC(=O)OC(C)(C)C)cc2Cl)c(Cl)cc1CNC(=O)OC(C)(C)C [Cl2,m-OMe2] | 18 h | 475.0 | –
C[Se]c1cc(CNC(=O)OC(C)(C)C)cc([Se]C)c1/N=N/c1c([Se]C)cc(CNC(=O)OC(C)(C)C)cc1[Se]C [(SeMe)4-NHBoc] | 0.00944 h | 534.3 | –
CC(C)(C)OC(=O)NCc1cc(Br)c(N=Nc2c(Br)cc(CNC(=O)OC(C)(C)C)cc2Br)c(Br)c1 [Br] | – | – | t1 of 1st order exponential decay fit (decomposition with GSH) [4]: 25249.56343 ± 57.34 s; τ 1/2 (10 mM GSH) [4]: 5 h
[N-]=[N+]=NCc1cc(I)c(/N=N/c2c(I)cc(CN=[N+]=[N-])cc2I)c(I)c1 [I4-N3] | 3 m | 514.4 | –

Compound | τ 1/2 [1, 5] | λ max of n → π* transition [2] [nm] | other results
CCOC(=O)c1cc([Se]C)c(/N=N/c2c([Se]C)cc(C(=O)OCC)cc2[Se]C)c([Se]C)c1 [(SeMe)4-ester] | 0.000694 h | 588.8 | –
CCSc1cc(CNC(=O)OC(C)(C)C)ccc1/N=N/c1ccc(CNC(=O)OC(C)(C)C)cc1SCC [(SEt)2,m-H2] | 44 m | 431.3 | –
CCOC(=O)c1cc(SCC)c(/N=N/c2c(SCC)cc(C(=O)OCC)cc2SCC)c(SCC)c1 [(SEt)4-ester] | 0.0144 h | 590.0 | –
CC(C)(C)OC(=O)NCc1cc(Br)c(N=Nc2c(Br)cc(CNC(=O)OC(C)(C)C)cc2Br)c(Br)c1 [Br4-NHBoc] | 12 h | 465.9 | t1 of exponential fit (lifetime plot of Z isomer) ([1]; after irradiation with 625 nm light, rt, DMSO): 1011 ± 6.62 min
CC(C)(C)OC(=O)NCc1ccc(/N=N/c2ccc(CNC(=O)OC(C)(C)C)cc2N2CCCC2)c(N2CCCC2)c1 [(N(CH2)4)2,m-H] | – | 530.2 | –
CC(=O)OCc1cc(I)c(/N=N/c2c(I)cc(COC(C)=O)cc2I)c(I)c1 [I4-OAc] | 2 m | 501.3 | –
CC(C)(C)OC(=O)NCc1cc(Cl)c(/N=N/c2c(Cl)cc(CNC(=O)OC(C)(C)C)cc2Cl)c(Cl)c1 [Cl] | – | – | t1 of 1st order exponential decay fit (decomposition with GSH) [4]: 14241.72745 ± 14.23 s; τ 1/2 (10 mM GSH) [4]: 2.7 h
C[Te]c1cccc(F)c1/N=N/c1c(F)cccc1[Te]C [Te2F2-H] | – | 543 | –
N#Cc1cc(I)c(/N=N/c2c(I)cc(C#N)cc2I)c(I)c1 [I4-CN] | 0.00556 h | 520.8 | –
CC(C)(C)OC(=O)NCc1cc(Cl)c(N=Nc2c(Cl)cc(CNC(=O)OC(C)(C)C)cc2Cl)c(Cl)c1 [Cl4-NHBoc] | 160 h | 462.6 | –
CCSc1cc(CNC(=O)OC(C)(C)C)c(OC)cc1/N=N/c1cc(OC)c(CNC(=O)OC(C)(C)C)cc1SCC [(SEt)2,m-OMe2] | 9 m | 464.1 | –
C[Se]c1cccc([Se]C)c1/N=N/c1c([Se]C)cccc1[Se]C [(SeMe)4-H] | 0.0222 h | 533.9 | –
COc1cc(CNC(=O)OC(C)(C)C)cc(OC)c1/N=N/c1c(OC)cc(CNC(=O)OC(C)(C)C)cc1OC [(OMe)4-NHBoc] | 197 h | 459.8 | –
O=C1c2ccccc2C(=O)N1Cc1cc(I)c(/N=N/c2c(I)cc(CN3C(=O)c4ccccc4C3=O)cc2I)c(I)c1 [I4-NPhth] | 3 m | 511.8 | –
COc1cc(N=Nc2cc(OC)c(CNC(=O)OC(C)(C)C)cc2F)c(F)cc1CNC(=O)OC(C)(C)C [F2,m-OMe2] | 77 h | 387.1 | –
C[Te]c1cccc([Te]C)c1/N=N/c1c([Te]C)cccc1[Te]C [(TeMe)4-H] | – | 518.5 | –
CC(C)(C)OC(=O)NCc1cc(F)c(/N=N/c2c(F)cc(CNC(=O)OC(C)(C)C)cc2F)c(F)c1 [F] | – | – | t1 of 1st order exponential decay fit (decomposition with GSH) [4]: 3748 ± 3.403 s; τ 1/2 (10 mM GSH) [4]: 0.7 h
CC(C)(C)OC(=O)NCc1cc(I)c(/N=N/c2c(I)cc(CNC(=O)OC(C)(C)C)cc2I)c(I)c1 [I] | – | – | t1 of 1st order exponential decay fit (decomposition with GSH) [4]: 3971 ± 9.47 s; τ 1/2 (10 mM GSH) [4]: 0.7 h
